Measurements as given in ChEMBL document CHEMBL2440042, “Anti-proliferative activity of hydnocarpin, a natural lignan, is associated with the suppression of Wnt/β-catenin signaling pathway in colon cancer cells” (Bioorg Med Chem Lett, 2013).
Calls of active or inactive are those of the source. The rule behind the calls is not given here.

How the values were obtained:
SW480 [1] = assay: Inhibition of Wnt/beta-catenin signaling pathway in human SW480 cells assessed as GSK3-beta protein expression at 5 uM after 24 hrs by Western blotting analysis relative to vehicle-treated control
SW480 [2] = assay: Inhibition of Wnt/beta-catenin signaling pathway in human SW480 cells assessed as phosphorylated (S45) beta-catenin protein expression at 10 uM after 24 hrs by Western blotting analysis relative to vehicle-treated control
SW480 [3] = assay: Inhibition of Wnt/beta-catenin signaling pathway in human SW480 cells assessed as dvl2 protein expression at 10 uM after 12 hrs by Western blotting analysis relative to vehicle-treated control
SW480 [4] = assay: Inhibition of Wnt/beta-catenin signaling pathway in human SW480 cells after 24 hrs by FOPflash luciferase reporter gene assay relative to vehicle-treated control; type: cell-based
SW480 [5] = assay: Inhibition of Wnt/beta-catenin signaling pathway in human SW480 cells assessed as Axin1 protein expression at 10 uM after 24 hrs by Western blotting analysis relative to vehicle-treated control
SW480 [6] = assay: Inhibition of Wnt/beta-catenin signaling pathway in human SW480 cells assessed as dvl3 protein expression at 10 uM after 12 hrs by Western blotting analysis relative to vehicle-treated control
SW480 [7] = assay: Inhibition of Wnt/beta-catenin signaling pathway in human SW480 cells assessed as dvl2 protein expression at 20 uM after 12 hrs by Western blotting analysis relative to vehicle-treated control
SW480 [8] = assay: Inhibition of Wnt/beta-catenin signaling pathway in human SW480 cells assessed as dvl2 protein expression at 20 uM after 24 hrs by Western blotting analysis relative to vehicle-treated control
SW480 [9] = assay: Inhibition of Wnt/beta-catenin signaling pathway in human SW480 cells after 24 hrs by TOPflash luciferase reporter gene assay relative to vehicle-treated control; type: cell-based
SW480 [10] = assay: Inhibition of Wnt/beta-catenin signaling pathway in human SW480 cells assessed as CK1-alpha protein expression at 5 uM after 24 hrs by Western blotting analysis relative to vehicle-treated control
[11] = target: Axin1/beta-catenin (Homo sapiens) (UniProt P35222+O15169); assay: Increase in axin1-beta-catenin interaction in human SW480 cells at 5 to 10 uM after 24 hrs by immunoprecipitation; type: cell-based
SW480 [12] = assay: Inhibition of Wnt/beta-catenin signaling pathway in human SW480 cells assessed as GSK3-beta protein expression at 20 uM after 12 hrs by Western blotting analysis relative to vehicle-treated control
SW480 [13] = assay: Inhibition of Wnt/beta-catenin signaling pathway in human SW480 cells assessed as Axin2 protein expression at 10 uM after 12 hrs by Western blotting analysis relative to vehicle-treated control
SW480 [14] = assay: Growth inhibition in human SW480 cells at 1 to 20 uM after 72 hrs by SRB assay in presence of axin1 siRNA; type: functional, cell-based
SW480 [15] = assay: Inhibition of Wnt/beta-catenin signaling pathway in human SW480 cells assessed as beta-catenin protein expression at 5 uM after 24 hrs by Immunoblotting analysis relative to vehicle-treated control
SW480 [16] = assay: Inhibition of Wnt/beta-catenin signaling pathway in human SW480 cells assessed as phosphorylated (S45) beta-catenin protein expression at 5 uM after 24 hrs by Western blotting analysis relative to vehicle-treated control
SW480 [17] = assay: Inhibition of Wnt/beta-catenin signaling pathway in human SW480 cells assessed as beta-catenin protein expression at 5 uM after 24 hrs by Western blotting analysis relative to vehicle-treated control
SW480 [18] = assay: Inhibition of Wnt/beta-catenin signaling pathway in human SW480 cells assessed as dvl1 protein expression at 10 uM after 12 hrs by Western blotting analysis relative to vehicle-treated control
SW480 [19] = assay: Inhibition of Wnt/beta-catenin signaling pathway in human SW480 cells assessed as Axin1 protein expression at 5 uM after 12 hrs by Western blotting analysis relative to vehicle-treated control
SW480 [20] = assay: Inhibition of Wnt/beta-catenin signaling pathway in human SW480 cells assessed as beta-catenin protein expression at 10 uM after 12 hrs by Western blotting analysis relative to vehicle-treated control
SW480 [21] = assay: Inhibition of Wnt/beta-catenin signaling pathway in human SW480 cells assessed as Axin1 protein expression at 20 uM after 12 hrs by Western blotting analysis relative to vehicle-treated control
SW480 [22] = assay: Inhibition of Wnt/beta-catenin signaling pathway in human SW480 cells assessed as Axin1 protein expression at 10 uM after 12 hrs by Western blotting analysis relative to vehicle-treated control
SW480 [23] = assay: Inhibition of Wnt/beta-catenin signaling pathway in human SW480 cells assessed as beta-catenin protein expression at 10 uM after 24 hrs by Immunoblotting analysis relative to vehicle-treated control
SW480 [24] = assay: Inhibition of Wnt/beta-catenin signaling pathway in human SW480 cells assessed as increase in phosphorylation of beta-catenin at Ser45 after 12 hrs by Western blotting analysis relative to vehicle-treated control; type: cell-based
SW480 [25] = assay: Inhibition of Wnt/beta-catenin signaling pathway in human SW480 cells assessed as dvl2 protein expression at 5 uM after 12 hrs by Western blotting analysis relative to vehicle-treated control
SW480 [26] = assay: Inhibition of Wnt/beta-catenin signaling pathway in human SW480 cells assessed as Axin2 protein expression at 5 uM after 12 hrs by Western blotting analysis relative to vehicle-treated control
SW480 [27] = assay: Inhibition of Wnt/beta-catenin signaling pathway in human SW480 cells assessed as dvl2 protein expression at 5 uM after 24 hrs by Western blotting analysis relative to vehicle-treated control
SW480 [28] = assay: Inhibition of Wnt/beta-catenin signaling pathway in human SW480 cells assessed as Axin1 protein expression at 5 uM after 24 hrs by Western blotting analysis relative to vehicle-treated control
SW480 [29] = assay: Inhibition of Wnt/beta-catenin signaling pathway in human SW480 cells assessed as Axin2 protein expression at 10 uM after 24 hrs by Immunoblotting analysis relative to vehicle-treated control
SW480 [30] = assay: Inhibition of Wnt/beta-catenin signaling pathway in human SW480 cells assessed as GSK3-beta protein expression at 10 uM after 24 hrs by Western blotting analysis relative to vehicle-treated control
SW480 [31] = assay: Inhibition of Wnt/beta-catenin signaling pathway in human SW480 cells assessed as dvl1 protein expression at 10 uM after 24 hrs by Western blotting analysis relative to vehicle-treated control
SW480 [32] = assay: Inhibition of Wnt/beta-catenin signaling pathway in human SW480 cells assessed as increase in phosphorylation of beta-catenin at Ser45 after 24 hrs by Western blotting analysis relative to vehicle-treated control; type: cell-based
SW480 [33] = assay: Inhibition of Wnt/beta-catenin signaling pathway in human SW480 cells assessed as CK1-alpha protein expression at 20 uM after 12 hrs by Western blotting analysis relative to vehicle-treated control
SW480 [34] = assay: Inhibition of Wnt/beta-catenin signaling pathway in human SW480 cells assessed as Axin2 protein expression at 20 uM after 24 hrs by Western blotting analysis relative to vehicle-treated control

## COc1cc([C@H]2Oc3ccc(-c4cc(=O)c5c(O)cc(O)cc5o4)cc3O[C@@H]2CO)ccc1O (relative stereo)
SW480 [1]
  fold change (FC): 1.1
SW480 [2]
  fold change (FC): 2.1
SW480 [3]
  fold change (FC): 1
SW480 [4]
  inhibition: inactive
SW480 [5]
  fold change (FC): 3.5
SW480 [6]
  fold change (FC): 1
SW480 [7]
  fold change (FC): 0.9
SW480 [8]
  fold change (FC): 1.2
SW480 [9]
  inhibition: Dose-dependent effect
SW480 [10]
  fold change (FC): 1.1
[11]
  Activity: Active
SW480 [12]
  fold change (FC): 0.9
SW480 [13]
  fold change (FC): 3.4
SW480 [14]
  growth inhibition (GI): inactive
SW480 [15]
  fold change (FC): 0.8
SW480 [16]
  fold change (FC): 1.4
SW480 [17]
  fold change (FC): 0.8
SW480 [18]
  fold change (FC): 1
SW480 [19]
  fold change (FC): 1.9
SW480 [20]
  fold change (FC): 0.7
SW480 [21]
  fold change (FC): 2.7
SW480 [22]
  fold change (FC): 2.2
SW480 [23]
  fold change (FC): 0.7
SW480 [24]
  inhibition: Dose-dependent effect
SW480 [25]
  fold change (FC): 1.2
SW480 [26]
  fold change (FC): 1
SW480 [27]
  fold change (FC): 1.2
SW480 [28]
  fold change (FC): 1.7
SW480 [29]
  fold change (FC): 1.2
SW480 [30]
  fold change (FC): 1.2
SW480 [31]
  fold change (FC): 1
SW480 [32]
  inhibition: Dose-dependent effect
SW480 [33]
  fold change (FC): 1.2
SW480 [34]
  fold change (FC): 6.7
